What was measured:
[1] = test system: Arabidopsis; assay: Arabidopsis vertical plate growth assay (primary root length, shoot biomass); format: in vivo, Arabidopsis thaliana; settings: 10 μM, low phosphate
Procedure: All Arabidopsis plant experiments were performed using the Arabidopsis thaliana Columbia-0 background. The Arabidopsis pSPX1::GUS line is described in the Plant Journal 2008, 54: 965-975. For rice, the cultivar Nipponbare was used. For maize, the cultivars DKC 2931 and B104 were used for regular pot experiments and sand-based pot experiments, respectively. For soybean, the cultivar Primus was used. […] The medium was solidified due to the addition of 0.6% Gelrite, unless stated otherwise. In case of vertical plates (root length and root hair measurements), the medium was supplied with 0.5% of sucrose and 1 μM (low phosphate, 1 μM KH2PO4, 9.9 mM KCl), 10 μM (low phosphate 10 μM KH2PO4, 9.9 mM KCl) or 1.25 mM KH2PO4 (high phosphate). Arabidopsis seeds were stratified for 2 days at 4° C. before germination. Seedlings were germinated in climate-controlled growth chambers at 22° C. under continuous light (100 μmol m^−2 s^−1). Husked rice seeds were germinated on wetted Whatman paper for 2 days at 37° C. and then transferred to Sterivent boxes or square Petri dishes with solid medium. Maize and soybean seeds were wetted 24 hours at room temperature prior to sowing in pots.
Arabidopsis primary root growth experiments were done on MS1/2 on vertical standing plates and roots were measured 11 days after germination. Roots were imaged using a flatbed scanner (EPSON Expression 11000XL) and root length was measured using ImageJ software. Arabidopsis shoot biomass was determined in 11 days after germination and growth on vertical standing plates with modMS. Arabidopsis leaf area was measured 21 days after germination on horizontal plates with modMS medium. Plates were scanned from the top using a flatbed scanner (EPSON Expression 11000XL) and the visible leaf area was measured using ImageJ software. Rice plate experiments used vertically standing Petri dishes containing MS1/2 medium (low phosphate—0.001 mM) solidified with 0.8% washed agar. Plant height was measured 11 days after germination. […] Plant height was measured 13 days after germination. […]

[2] = test system: Arabidopsis; assay: Anthocyanin quantification, Arabidopsis 96-well plate; format: in vivo, Arabidopsis thaliana; settings: low phosphate, 50 μM, 7 days after germination, control = 1
Procedure: Col-0 ecotype Arabidopsis seeds were sown in 96-well plates containing 150 μl of low phosphate modMS liquid medium containing 1% of sucrose. Compounds was added in 50 μM concentration (1% DMSO). Eight plants per repeat were collected 7 days after germination and put into a fresh Eppendorf. Extraction and quantification of anthocyanin levels was carried out according to The Plant cell 2013, 25:1641-1656. Anthocyanin levels were quantified by measuring absorption at 530 and 657 nm using a spectrophotometer and normalized to fresh weight input, and expressed relative to the low phosphate control. For pot experiments, the same procedure was followed with one 4-week old plant per sample.

[3] = test system: Soybean; assay: Soybean pot experiment; format: in vivo, soybean cultivar Primus; settings: low phosphate, 10 μM, 4 weeks
Procedure: All Arabidopsis plant experiments were performed using the Arabidopsis thaliana Columbia-0 background. The Arabidopsis pSPX1::GUS line is described in the Plant Journal 2008, 54: 965-975. For rice, the cultivar Nipponbare was used. For maize, the cultivars DKC 2931 and B104 were used for regular pot experiments and sand-based pot experiments, respectively. For soybean, the cultivar Primus was used. […] The medium was solidified due to the addition of 0.6% Gelrite, unless stated otherwise. […]
Regular Arabidopsis, soybean and maize pot experiments used an unfertilized potting soil, which was supplemented at the start of the experiment with 50 ml H2O containing 0.25 g/l NH4NO3 and 0.44 g/l (high phosphate) or no (maize and soybean) or 0.11 g/l KH2PO (Arabidopsis) for low phosphate conditions. […] Compound concentration was 10 μM, calculated based on the total water content after watering, and was added at the start of the experiment (Arabidopsis) or once a week (maize). […] All parameters in the sand experiment, except the rate of leaf 4 (measured the first 4 days after emergence), were measured 19 days after sowing. Measurements in the pot experiments with potting soil were done after 4 weeks of growth, except for leaf 5, which was measured at 26 days. […]

[4] = test system: Maize B104; assay: Long-term maize pot experiment, B104 (PHENOVISION); format: in vivo, maize cultivar B104
Procedure: Regular Arabidopsis, soybean and maize pot experiments used an unfertilized potting soil, which was supplemented at the start of the experiment with 50 ml H2O containing 0.25 g/l NH4NO3 and 0.44 g/l (high phosphate) or no (maize and soybean) or 0.11 g/l KH2PO (Arabidopsis) for low phosphate conditions. For the sand-based maize pot experiment, sand was supplemented with 50 ml H2O containing 0.25 g/l NH4NO3 and 0.38 g/l (high phosphate) or 0.02 g/l (low phosphate) KH2PO4. Potassium was balanced via addition of KCl. Compound concentration was 10 μM, calculated based on the total water content after watering, and was added at the start of the experiment (Arabidopsis) or once a week (maize). Indexed chlorophyll contents were received via a SPAD 502 Plus Chlorophyll Meter. All parameters in the sand experiment, except the rate of leaf 4 (measured the first 4 days after emergence), were measured 19 days after sowing. Measurements in the pot experiments with potting soil were done after 4 weeks of growth, except for leaf 5, which was measured at 26 days. One long-term maize pot experiment was conducted with the DKC 2931 (2.5 months) and B104 (3 months) cultivars on the PHENOVISION phenotyping platform as described in Frontiers in Plant Science 2021, 12: 640914, except that an unfertilized potting soil was used and that plants were fertilized with a low-phosphate Hoagland solution. The 2.5× overconcentrated low-phosphate Hoagland solution contained 0.034 g/l KH2PO and 200 mL of this solution was applied twice a week. 1.4 mL of a 10 mM compound solution was added each two weeks to each pot, corresponding to 9.6 mg/g nutrients. 13 plants per condition were used. During the experiment, pictures were taken twice a week for each plants from 6 different angles and the top. Pictures were used to extract the plant height and to extract the projected plant area from each side and calculate an estimated plant volume over time.

CC1CN(CC(=O)c2c(N)n(C)c(=O)n(C)c2=O)c2ccccc2O1 (stereo not shown) [Compound 8, 6-amino-1,3-dimethyl-5-[2-(2-methyl-2,3-dihydro-1,4-benzoxazin-4-yl)acetyl]pyrimidine-2,4-dione]
Primary root length versus control without compound ([1]; 11-day-old Arabidopsis): almost double the length of the control
Primary root length ([1]; Arabidopsis vertical plate, 11 days after germination, control 1.8): 3.5 cm
Shoot biomass ([1]; Arabidopsis vertical plate, 11 days after germination, control 11): 21 mg
Relative anthocyanin level [2]: 0.6
Biomass ([3]; control 4.1): 4.4 g
Plant height ([3]; control 50): 55 cm
Plant height ([4]; B104, day 15, control 230): 220 mm
Estimated volume ([4]; B104, day 15, control 311): 292 cm^3
Plant height ([4]; B104, day 19, control 246): 239 mm
Estimated volume ([4]; B104, day 19, control 465): 441 cm^3
Plant height ([4]; B104, day 22, control 291): 288 mm
Estimated volume ([4]; B104, day 22, control 548): 565 cm^3
Plant height ([4]; B104, day 26, control 351): 368 mm
Estimated volume ([4]; B104, day 26, control 623): 689 cm^3
Plant height ([4]; B104, day 27, control 416): 364 mm
Estimated volume ([4]; B104, day 27, control 637): 552 cm^3
Plant height ([4]; B104, day 29, control 412): 411 mm
Estimated volume ([4]; B104, day 29, control 788): 877 cm^3
Plant height ([4]; B104, day 33, control 424): 428 mm
Estimated volume ([4]; B104, day 33, control 1146): 1368 cm^3
Plant height ([4]; B104, day 36, control 472): 485 mm
Estimated volume ([4]; B104, day 36, control 1405): 1735 cm^3
Plant height ([4]; B104, day 40, control 507): 547 mm
Estimated volume ([4]; B104, day 40, control 1673): 2117 cm^3
Plant height ([4]; B104, day 43, control 551): 587 mm
Estimated volume ([4]; B104, day 43, control 1795): 2363 cm^3
Plant height ([4]; B104, day 47, control 609): 657 mm
Estimated volume ([4]; B104, day 47, control 2268): 2844 cm^3
Plant height ([4]; B104, day 50, control 633): 692 mm
Estimated volume ([4]; B104, day 50, control 2874): 3518 cm^3
Plant height ([4]; B104, day 54, control 544): 564 mm
Estimated volume ([4]; B104, day 54, control 3143): 3857 cm^3
Plant height ([4]; B104, day 57, control 572): 569 mm
Estimated volume ([4]; B104, day 57, control 3365): 4216 cm^3
Plant height ([4]; B104, day 61, control 572): 609 mm
Estimated volume ([4]; B104, day 61, control 3936): 5052 cm^3
Plant height ([4]; B104, day 63, control 514): 529 mm
Estimated volume ([4]; B104, day 63, control 3808): 4933 cm^3
Plant height ([4]; B104, day 68, control 566): 593 mm
Estimated volume ([4]; B104, day 68, control 4585): 5837 cm^3
Plant height ([4]; B104, day 71, control 611): 629 mm
Estimated volume ([4]; B104, day 71, control 4957): 5962 cm^3
Plant height ([4]; B104, day 75, control 569): 627 mm
Estimated volume ([4]; B104, day 75, control 5016): 6099 cm^3
Plant height ([4]; B104, day 78, control 590): 662 mm
Estimated volume ([4]; B104, day 78, control 5551): 6540 cm^3
Plant height ([4]; B104, day 82, control 626): 685 mm
Estimated volume ([4]; B104, day 82, control 5788): 6751 cm^3
Plant height ([4]; B104, day 85, control 677): 707 mm
Estimated volume ([4]; B104, day 85, control 5957): 6623 cm^3
Plant height ([4]; B104, day 89, control 697): 733 mm
Estimated volume ([4]; B104, day 89, control 5717): 6434 cm^3
Average number of ears ([4]; Maize pot long term B104, 3 months, low phosphate, control 0.3): 0.7
Shoot weight ([4]; Maize pot long term B104, low phosphate, control 28): 32 g
Leaf 6 ([4]; Maize pot long term B104, low phosphate, control 48): 50 cm

From patent US20240206469A1, “PHOSPHORUS USE EFFICIENCY ENHANCERS AS PLANT GROWTH PROMOTORS” (EUROCHEM ANTWERPEN, priority 2021, published 2024)
